This note sets out measurements from US20230322846A9, “NEUROACTIVE STEROIDS AND THEIR METHODS OF USE” (SAGE THERAPEUTICS, INC., priority 2018, published 2023).

Where only a bound is given, the exact number is not on record here.

The target of the assay is [35S]-TBPS binding, rat brain cortical membranes. As to the kind of experiment: Steroid inhibition of [35S]-TBPS binding. Conditions: 3 nM [35S]-TBPS, in the presence of 5 mM GABA. The method, boiled down:
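Rat cortical P2 membranes incubated 90 min at room temperature with 3 nM [35S]-TBPS, […] and test compound (0.5% DMSO final) in NaCl/Na–K phosphate pH 7.4; nonspecific binding with […]. Filter-bound radioactivity counted; IC50 and Imax from nonlinear fits, mean ± SEM.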
Regarding `C[C@H](NC(=O)c1cccc(C#N)c1)[C@H]1CC[C@H]2[C@@H]3CC[C@@H]4C[C@](C)(O)CC[C@@H]4[C@H]3CC[C@]12C` [Example 110], the IC50 fell in the range of 1000 to 10000 nM. In the case of `COC[C@@]1(O)CC[C@H]2[C@H](CC[C@@H]3[C@@H]2CC[C@]2(C)[C@@H]([C@@H](C)NC(=O)c4ccc(OC(F)(F)F)cc4)CC[C@@H]32)C1` [Example 111], the IC50 is < 100 nM. As for `COC[C@@]1(O)CC[C@H]2[C@H](CC[C@@H]3[C@@H]2CC[C@]2(C)[C@@H]([C@H](C)NC(=O)c4ccc(OC(F)(F)F)cc4)CC[C@@H]32)C1` [Example 112], the IC50 fell in the range of 100 to 1000 nM.

`COC[C@@]1(O)CC[C@H]2[C@H](CC[C@@H]3[C@@H]2CC[C@]2(C)[C@@H]([C@@H](C)NC(=O)c4ccc(F)cc4)CC[C@@H]32)C1` [Example 113]: the IC50 lay within 100 to 1000 nM. With `COC[C@@]1(O)CC[C@H]2[C@H](CC[C@@H]3[C@@H]2CC[C@]2(C)[C@@H]([C@H](C)NC(=O)c4ccc(F)cc4)CC[C@@H]32)C1` [Example 114] the figure was 1000 to 10000 nM. For `C[C@H](NC(=O)c1ccc(C#N)cc1)[C@H]1CC[C@H]2[C@@H]3CC[C@@H]4C[C@](C)(O)CC[C@@H]4[C@H]3CC[C@]12C` [Example 115] the value was 1000 to 10000 nM; for `C[C@@H](NC(=O)c1ccc(F)cc1)[C@H]1CC[C@H]2[C@@H]3CC[C@@H]4C[C@](C)(O)CC[C@@H]4[C@H]3CC[C@]12C` [Example 116], < 100 nM; for `C[C@H](NC(=O)c1ccc(F)cc1)[C@H]1CC[C@H]2[C@@H]3CC[C@@H]4C[C@](C)(O)CC[C@@H]4[C@H]3CC[C@]12C` [Example 117], 1000 to 10000 nM. With `COC[C@@]1(O)CC[C@H]2[C@H](CC[C@@H]3[C@@H]2CC[C@]2(C)[C@@H]([C@@H](C)NC(=O)c4cc(C)nn4C)CC[C@@H]32)C1` [Example 118], the IC50 was in the range of 100 to 1000 nM.

Regarding `COC[C@@]1(O)CC[C@H]2[C@H](CC[C@@H]3[C@@H]2CC[C@]2(C)[C@@H]([C@H](C)NC(=O)c4cc(C)nn4C)CC[C@@H]32)C1` [Example 119], the IC50 lay in the range of 1000 to 10000 nM. As for `C[C@H](NC(=O)c1ccc(C#N)cn1)[C@H]1CC[C@H]2[C@@H]3CC[C@@H]4C[C@](C)(O)CC[C@@H]4[C@H]3CC[C@]12C` [Example 121], the IC50 lay within 1000 to 10000 nM. With `C[C@H](NC(=O)c1ccc(F)cn1)[C@H]1CC[C@H]2[C@@H]3CC[C@@H]4C[C@](C)(O)CC[C@@H]4[C@H]3CC[C@]12C` [Example 124], the IC50 is 100 to 1000 nM. As for `COC[C@@]1(O)CC[C@H]2[C@H](CC[C@@H]3[C@@H]2CC[C@]2(C)[C@@H]([C@@H](C)NC(=O)c4ccc(F)cn4)CC[C@@H]32)C1` [Example 125], the IC50 lay within 100 to 1000 nM.

Consider `COC[C@@]1(O)CC[C@H]2[C@H](CC[C@@H]3[C@@H]2CC[C@]2(C)[C@@H]([C@H](C)NC(=O)c4ccc(F)cn4)CC[C@@H]32)C1` [Example 126], for which the IC50 lay within 1000 to 10000 nM. For `C[C@@H](NC(=O)c1ccc(F)cn1)[C@H]1CC[C@H]2[C@@H]3CC[C@@H]4C[C@](C)(O)CC[C@@H]4[C@H]3CC[C@]12C` [Example 127] the value was 100 to 1000 nM; for `COC[C@@]1(O)CC[C@H]2[C@H](CC[C@@H]3[C@@H]2CC[C@]2(C)[C@@H]([C@@H](C)NC(=O)c4ccc(OC(F)(F)F)cn4)CC[C@@H]32)C1` [Example 128], 100 to 1000 nM.

Consider `COC[C@@]1(O)CC[C@H]2[C@H](CC[C@@H]3[C@@H]2CC[C@]2(C)[C@@H]([C@H](C)NC(=O)c4ccc(OC(F)(F)F)cn4)CC[C@@H]32)C1` [Example 129], for which the IC50 is 100 to 1000 nM. For `C[C@@H](NC(=O)c1ccc(C#N)cc1F)[C@H]1CC[C@H]2[C@@H]3CC[C@@H]4C[C@](C)(O)CC[C@@H]4[C@H]3CC[C@]12C` [Example 130] the value was < 100 nM; for `COC[C@@]1(O)CC[C@H]2[C@H](CC[C@@H]3[C@@H]2CC[C@]2(C)[C@@H]([C@@H](C)NC(=O)c4ccc(C#N)cc4F)CC[C@@H]32)C1` [Example 131], < 100 nM; for `CCOC[C@@]1(O)CC[C@H]2[C@H](CC[C@@H]3[C@@H]2CC[C@]2(C)[C@@H]([C@@H](C)NC(=O)c4ccc(C#N)cc4F)CC[C@@H]32)C1` [Example 133], < 100 nM. With `COC[C@@]1(O)CC[C@H]2[C@H](CC[C@@H]3[C@@H]2CC[C@]2(C)[C@@H]([C@@H](C)NC(=O)c4ccc(F)cc4F)CC[C@@H]32)C1` [Example 134] the figure was < 100 nM; with `COC[C@@]1(O)CC[C@H]2[C@H](CC[C@@H]3[C@@H]2CC[C@]2(C)[C@@H]([C@H](C)NC(=O)c4ccc(F)cc4F)CC[C@@H]32)C1` [Example 135], 1000 to 10000 nM; with `COC[C@@]1(O)CC[C@H]2[C@H](CC[C@@H]3[C@@H]2CC[C@]2(C)[C@@H]([C@@H](C)n4cc(C#N)cn4)CC[C@@H]32)C1` [Example 150, 1-((R)-1-((3R, 5R, 8R, 9R, 10S, 135, 145, 17S)-3-hydroxy-3-(methoxymethyl)-13-methylhexadecahydro-1H-cyclopenta[a]phenanthren-17-yl)ethyl)-1H-pyrazole-4-carbonitrile], < 100 nM. With `COC[C@@]1(O)CC[C@H]2[C@H](CC[C@@H]3[C@@H]2CC[C@]2(C)[C@@H]([C@H](C)n4cc(C#N)cn4)CC[C@@H]32)C1` [Example 151, 1-((S)-1-((3R,5R,8R,9R,10S,13S,14S,17S)-3-hydroxy-3-(methoxymethyl)-13-methylhexadecahydro-1H-cyclopenta[a]phenanthren-17-yl)ethyl)-1H-pyrazole-4-carbonitrile] the figure was 1000 to 10000 nM; with `COC[C@@]1(O)CC[C@H]2[C@H](CC[C@@H]3[C@@H]2CC[C@]2(C)[C@@H]([C@@H](C)n4ncc(C#N)c4N)CC[C@@H]32)C1` [Example 152, 5-amino-1-((R)-1-((3R,5R,8R,9R,10S,13S,14S,17S)-3-hydroxy-3-(methoxymethyl)-13-methylhexadecahydro-1H-cyclopenta[a]phenanthren-17-yl)ethyl)-1H-pyrazole-4-carbonitrile], 1000 to 10000 nM; with `COC[C@@]1(O)CC[C@H]2[C@H](CC[C@@H]3[C@@H]2CC[C@]2(C)[C@@H]([C@H](C)n4ncc(C#N)c4N)CC[C@@H]32)C1` [Example 153, 5-amino-1-((S)-1-((3R,5R,8R,9R,10S,13S,14S,17S)-3-hydroxy-3-(methoxymethyl)-13-methylhexadecahydro-1H-cyclopenta[a]phenanthren-17-yl)ethyl)-1H-pyrazole-4-carbonitrile], 1000 to 10000 nM.

On to `C[C@H]([C@H]1CC[C@H]2[C@@H]3CC[C@@H]4C[C@](C)(O)CC[C@@H]4[C@H]3CC[C@]12C)n1ncc(C#N)c1N` [Example 154, 5-amino-1-((R)-1-((3R,5R,8R,9R,10S,13S,14S,17S)-3-hydroxy-3,13-dimethylhexadecahydro-1H-cyclopenta[a]phenanthren-17-yl)ethyl)-1H-pyrazole-4-carbonitrile], for which the IC50 is 1000 to 10000 nM. Take `C[C@@H]([C@H]1CC[C@H]2[C@@H]3CC[C@@H]4C[C@](C)(O)CC[C@@H]4[C@H]3CC[C@]12C)n1ncc(C#N)c1N` [Example 155, 5-amino-1-((S)-1-((3R,5R,8R,9R,10S,13S,14S,17S)-3-hydroxy-3,13-dimethylhexadecahydro-1H-cyclopenta[a]phenanthren-17-yl)ethyl)-1H-pyrazole-4-carbonitrile]: the IC50 was in the range of 1000 to 10000 nM. Consider `C[C@H]([C@H]1CC[C@H]2[C@@H]3CC[C@@H]4C[C@](C)(O)CC[C@@H]4[C@H]3CC[C@]12C)n1cc(C#N)cn1` [Example 156, 1-((R)-1-((3R,5R,8R,9R,10S,13S,14S,17S)-3-hydroxy-3,13-dimethylhexadecahydro-1H-cyclopenta[a]phenanthren-17-yl)ethyl)-1H-pyrazole-4-carbonitrile], for which the IC50 was < 100 nM. With `C[C@@H]([C@H]1CC[C@H]2[C@@H]3CC[C@@H]4C[C@](C)(O)CC[C@@H]4[C@H]3CC[C@]12C)n1cc(C#N)cn1` [Example 157, 1-((S)-1-((3R,5R,8R,9R,10S,13S,14S,17S)-3-hydroxy-3,13-dimethylhexadecahydro-1H-cyclopenta[a]phenanthren-17-yl)ethyl)-1H-pyrazole-4-carbonitrile] the figure was 1000 to 10000 nM. In the case of `C[C@H]([C@H]1CC[C@H]2[C@@H]3CC[C@@H]4C[C@](C)(O)CC[C@@H]4[C@H]3CC[C@]12C)n1nccn1` [Example 158, (3R,5R,8R,9R,10S,13S,14S,17S)-17-((R)-1-(2H-1,2,3-triazol-2-yl)ethyl)-3,13-dimethylhexadecahydro-1H-cyclopenta[a]phenanthren-3-ol], the IC50 lay in the range of 100 to 1000 nM. Turning to `C[C@H]([C@H]1CC[C@H]2[C@@H]3CC[C@@H]4C[C@](C)(O)CC[C@@H]4[C@H]3CC[C@]12C)n1ccnn1` [Example 159, (3R,5R,8R,9R,10S,13S,14S,17S)-17-((R)-1-(1H-1,2,3-triazol-1-yl)ethyl)-3,13-dimethylhexadecahydro-1H-cyclopenta[a]phenanthren-3-ol], the IC50 was ≥ 10000 nM.

One may read the IC50 as the point on the concentration scale where inhibition reaches its midpoint.
